In one assay the target is Replicase polyprotein 1a (Severe acute respiratory syndrome-related coronavirus, UniProt P0C6U8). The assay is described as follows: Inhibition of human SARS coronavirus 3C like protease.
The target of assay [1] is Replicase polyprotein 1a (Severe acute respiratory syndrome-related coronavirus) (UniProt P0C6U8). Description: Inhibition of human SARS coronavirus 3C like protease at 10 uM.

By pIC50 is commonly meant the negative decadic logarithm of the IC50, by convention in mol/L. Read a low pIC50 as a large IC50. By inhibition is commonly meant the relative decrease from the control value, in per cent. Read a high inhibition as a response far below the control.

pIC50: −log10 of the molar value.

In the case of `O=C(CSc1nc(C2CCCCC2)nc2ccccc12)NCc1ccco1`, the negative-log IC50 (pIC50) on Replicase polyprotein 1a was 4.74. Moreover, the inhibition in assay [1] was found to be 30%.
At Replicase polyprotein 1a, `Cc1cc2cc(CN(CCc3ccccc3C)C(=O)NCc3ccccc3)c(=O)[nH]c2cc1C` gave a pIC50 of 4.76. The molecule further yielded an inhibition in assay [1] of 40%.

The record behind these values is ChEMBL document CHEMBL1157171, “Structure-based virtual screening against SARS-3CL(pro) to identify novel non-peptidic hits” (Bioorg Med Chem, 2008).
